Test results taken from ChEMBL document CHEMBL4823276, “Comparative studies on the substrate specificity and defucosylation activity of three α-l-fucosidases using synthetic fucosylated glycopeptides and glycoproteins as substrates” (Bioorg Med Chem, 2021).

Columns and labels:
Type in all cases: ADME
[1] = Substrate activity at recombinant His-tagged Bacteroides fragilis alpha L-fucosidase expressed in Escherichia coli BL21(DE3) assessed as formation of p-nitrophenyl products at 5 mM measured by UV spectrometer assay; conditions: 5000 µM
[2] = Substrate activity at recombinant His-tagged Lactobacillus casei alpha L-fucosidase expressed in Escherichia coli […] assessed as formation of p-nitrophenyl products at 5 mM measured by UV spectrometer assay; conditions: lacticaseibacillus casei, 5000 µM
[3] = Substrate activity at recombinant His-tagged Bacteroides fragilis alpha L-fucosidase expressed in Escherichia coli BL21(DE3) assessed as de-fucosylation of N-glycan at 5 mg/ml measured after 21 hrs by LC/MS analysis
[4] = Substrate activity at recombinant His-tagged Lactobacillus casei alpha L-fucosidase expressed in Escherichia coli […] assessed as de-fucosylation of N-glycan at 5 mg/ml measured after 21 hrs by LC/MS analysis; conditions: lacticaseibacillus casei

Activity [1] | Activity [2] | Activity [3] | Activity [4] | Compound
Active | Not Active | – | – | C[C@@H]1O[C@@H](Oc2ccc([N+](=O)[O-])cc2)[C@@H](O)[C@H](O)[C@@H]1O
– | – | Not Active | Not Active | CC(=O)N[C@@H]1[C@@H](O)[C@H](O[C@@H]2O[C@H](CO)[C@@H](O[C@@H]3O[C@H](CO[C@H]4O[C@H](CO)[C@@H](O)[C@H](O)[C@@H]4O[C@@H]4O[C@H](CO[C@@H]5O[C@H](CO[C@]6(C(=O)O)C[C@H](O)[C@@H](NC(C)=O)C([C@H](O)[C@H](O)CO)O6)[C@H](O)[C@H](O)[C@H]5O)[C@@H](O)[C@H](O)[C@H]4NC(C)=O)[C@@H](O)[C@H](O[C@H]4O[C@H](CO)[C@@H](O)[C@H](O)[C@@H]4O[C@@H]4O[C@H](CO)[C@@H](O[C@@H]5O[C@H](CO[C@]6(C(=O)O)C[C@H](O)[C@@H](NC(C)=O)C([C@H](O)[C@H](O)CO)O6)[C@H](O)[C@H](O)[C@H]5O)[C@H](O)[C@H]4NC(C)=O)[C@@H]3O)[C@H](O)[C@H]2NC(C)=O)[C@@H](CO[C@H]2O[C@H](C)[C@H](O)[C@H](O)[C@H]2O)O[C@H]1NC(=O)CNC(=O)C[C@H](NC(=O)[C@H](CCC(N)=O)NC(=O)CN)C(=O)N[C@@H](CC(=O)O)C(=O)N[C@H](C(=O)N[C@@H](CO)C(=O)N[C@@H](CCC(N)=O)C(=O)N[C@H](C(=O)N[C@@H](CO)C(=O)N[C@@H](CO)C(=O)N1CCC[C@H]1C(=O)N[C@@H](CO)C(=O)N[C@@H](CC(C)C)C(=O)N1CCC[C@H]1C(=O)N[C@@H](CCCCN)C(=O)N[C@H](C(=O)NCC(=O)NCC(=O)N[C@@H](CO)C(=O)O)[C@@H](C)O)[C@@H](C)O)[C@@H](C)O (some centres undefined)
